From patent EP3753932A1, “SUBSTITUTED BICYCLIC DERIVATIVES HAVING MULTIMODAL ACTIVITY AGAINST PAIN” (priority 2019, dated 2020)
Where two headings read alike, the source gives them in different places.

Legend:
[1] = molecular target: T1, Human µ-opioid receptor (Homo sapiens, UniProt P35372); experiment: Human µ-opioid receptor radioligand assay ([3H]-DAMGO); format: binding
T1 construct: expressed in transfected cells; host or cells: CHO-K1
Protocol: Human µ-opioid receptor radioligand assay
Transfected CHO-K1 cell membranes (20 µg) were incubated with [^3H]-DAMGO (1 nM) in assay buffer containing Tris-HCl 50 mM, MgCl2 5 mM at pH 7.4. NBS (non-specific binding) was measured by adding 10 µM Naloxone. The binding of the test compound was measured at either one concentration (% inhibition at 1 or 10 µM) or five different concentrations to determine affinity values (Ki). Plates were incubated at 27 °C for 60 min. After the incubation period, the reaction mixture was then transferred to MultiScreen HTS, FC plates (Millipore), filtered and plates were washed 3 times with ice-cold 10 mM Tris-HCl (pH 7.4). Filters were dried and counted at approximately 40% efficiency in a MicroBeta scintillation counter (Perkin-Elmer) using EcoScint liquid scintillation cocktail.

[2] = molecular target: Human α2δ-1 subunit of Cav2.2 calcium channel (Homo sapiens, UniProt P54289); experiment: Human α2δ-1 subunit of Cav2.2 calcium channel assay ([3H]-Gabapentin binding)
Human α2δ-1 subunit of Cav2.2 calcium channel, sequence (P54289 25-1103): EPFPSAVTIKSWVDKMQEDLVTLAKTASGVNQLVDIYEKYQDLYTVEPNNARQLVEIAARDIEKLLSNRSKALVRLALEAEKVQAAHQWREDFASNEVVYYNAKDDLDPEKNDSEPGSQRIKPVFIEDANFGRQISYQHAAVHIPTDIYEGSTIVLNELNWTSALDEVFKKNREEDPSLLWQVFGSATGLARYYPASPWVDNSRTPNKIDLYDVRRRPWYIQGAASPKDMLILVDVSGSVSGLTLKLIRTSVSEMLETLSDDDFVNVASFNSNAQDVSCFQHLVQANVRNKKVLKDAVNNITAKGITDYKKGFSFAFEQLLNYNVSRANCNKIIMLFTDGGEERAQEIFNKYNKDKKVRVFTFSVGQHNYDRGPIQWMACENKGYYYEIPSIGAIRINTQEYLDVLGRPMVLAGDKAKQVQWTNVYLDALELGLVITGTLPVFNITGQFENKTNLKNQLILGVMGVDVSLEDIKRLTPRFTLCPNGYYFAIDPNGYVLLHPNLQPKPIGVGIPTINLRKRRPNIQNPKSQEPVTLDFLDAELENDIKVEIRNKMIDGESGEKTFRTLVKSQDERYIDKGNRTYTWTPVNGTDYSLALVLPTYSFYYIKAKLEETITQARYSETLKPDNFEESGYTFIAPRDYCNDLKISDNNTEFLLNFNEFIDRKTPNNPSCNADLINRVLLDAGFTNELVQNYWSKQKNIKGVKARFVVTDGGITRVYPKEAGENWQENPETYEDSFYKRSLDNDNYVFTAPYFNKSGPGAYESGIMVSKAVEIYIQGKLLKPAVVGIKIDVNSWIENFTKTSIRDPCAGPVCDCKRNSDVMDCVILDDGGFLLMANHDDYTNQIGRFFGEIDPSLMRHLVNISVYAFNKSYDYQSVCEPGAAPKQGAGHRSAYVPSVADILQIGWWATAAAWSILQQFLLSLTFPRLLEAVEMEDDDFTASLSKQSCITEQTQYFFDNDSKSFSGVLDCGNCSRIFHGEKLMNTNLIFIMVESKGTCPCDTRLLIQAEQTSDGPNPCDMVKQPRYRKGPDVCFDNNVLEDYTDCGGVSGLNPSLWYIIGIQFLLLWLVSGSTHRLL
Protocol: Human α2δ-1 subunit of Cav2.2 calcium channel assay
Human α2δ-1 enriched membranes (2.5 µg) were incubated with 15 nM of radiolabeled [3H]-Gabapentin in assay buffer containing Hepes-KOH 10mM, pH 7.4. NSB (non specific binding) was measured by adding 10 µM pregabalin. The binding of the test compound was measured at either one concentration (% inhibition at 1 or 10 µM) or five different concentrations to determine affinity values (Ki). After 60 min incubation at 27 °C, binding reaction was terminated by filtering through Multiscreen GF/C (Millipore) presoaked in 0.5 % polyethyleneimine in Vacuum Manifold Station, followed by 3 washes with ice-cold filtration buffer containing 50 mM Tris-HCl, pH 7.4. Filter plates were dried at 60 °C for 1 hour and 30 µl of scintillation cocktail were added to each well before radioactivity reading. Readings were performed in a Trilux 1450 Microbeta radioactive counter (Perkin Elmer).

[3] = human α2δ-1 enriched membranes, [3H]-Gabapentin 15 nM, read-out: α2δ-1 binding
[4] = transfected CHO-K1 cell membranes, [3H]-DAMGO 1 nM, read-out: µ-binding

T1 sequence (P35372 whole entry): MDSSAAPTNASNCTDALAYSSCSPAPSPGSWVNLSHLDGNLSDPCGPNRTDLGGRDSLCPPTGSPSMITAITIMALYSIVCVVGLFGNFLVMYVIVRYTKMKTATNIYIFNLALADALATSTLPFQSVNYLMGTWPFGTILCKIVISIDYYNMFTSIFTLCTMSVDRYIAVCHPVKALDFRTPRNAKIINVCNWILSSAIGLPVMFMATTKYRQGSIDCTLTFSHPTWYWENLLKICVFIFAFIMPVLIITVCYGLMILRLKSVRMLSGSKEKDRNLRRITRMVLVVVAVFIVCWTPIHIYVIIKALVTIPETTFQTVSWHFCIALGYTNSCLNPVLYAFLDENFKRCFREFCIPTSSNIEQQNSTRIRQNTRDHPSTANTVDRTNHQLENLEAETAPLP

Row | Compound | Ki [1] | Ki [2, 3] | Ki [1, 4] | Ki [2]
1 | CCC[C@@H](c1cnc2cc(N3CCC(c4cccc(O)c4)(N(C)C)CC3)ccc2c1)N1C[C@@H](C)N[C@@H](C)C1 [Example 5, 3-(4-(Dimethylamino)-1-(3-((S)-1-((3S,5R)-3,5-dimethylpiperazin-1-yl)butyl)quinolin-7-yl)piperidin-4-yl)phenol] | < 100 nM | > 5000 nM |  | 
2 | CCC[C@@H](c1cc2ccc(CN3CCC(c4cccc(O)c4)(N(C)C)CC3)cc2nc1CC)N1C[C@@H](C)N[C@@H](C)C1 [Example 24, 3-(4-(Dimethylamino)-1-((3-((S)-1-((3S,5R)-3,5-dimethylpiperazin-1-yl)butyl)-2-ethylquinolin-7-yl)methyl)piperidin-4-yl)phenol] | < 100 nM | 500 to 5000 nM |  | 
3 | CCCC(c1ccc2cc(N3CCC(c4cccc(O)c4)(N(C)C)CC3)ccc2c1)N1C[C@@H](C)N[C@@H](C)C1 (stereo partly drawn) [Example 1, 3-(4-(Dimethylamino)-1-(6-(1-((3S,5R)-3,5-dimethylpiperazin-1-yl)butyl)naphthalen-2-yl)piperidin-4-yl)phenol] |  |  | < 100 nM | > 5000 nM
4 | CCCC(c1cnc2cc(N3CCC(c4cccc(O)c4)(N(C)C)CC3)ccc2n1)N1C[C@@H](C)N[C@@H](C)C1 (stereo partly drawn) [Example 32, 3-(4-(Dimethylamino)-1-(2-(1-((3S,5R)-3,5-dimethylpiperazin-1-yl)butyl)quinoxalin-6-yl)piperidin-4-yl)phenol] | < 100 nM | 500 to 5000 nM |  | 
5 | CCC[C@H](c1cnc2cc(CN3CCC(c4cccc(O)c4)(N(C)C)CC3)ccc2c1)N1C[C@@H](C)N[C@@H](C)C1 [Example 8, 3-(4-(Dimethylamino)-1-((3-((R)-1-((3S,5R)-3,5-dimethylpiperazin-1-yl)butyl)quinolin-7-yl)methyl)piperidin-4-yl)phenol] |  |  | < 100 nM | < 500 nM
6 | CCCC(c1cc2ccc(N3CCC(c4cccc(O)c4)(N(C)C)CC3)cc2nc1CC)N1C[C@@H](C)N[C@@H](C)C1 (stereo partly drawn) [Example 20, 3-(4-(Dimethylamino)-1-(3-(1-((3S,5R)-3,5-dimethylpiperazin-1-yl)butyl)-2-ethylquinolin-7-yl)piperidin-4-yl)phenol] |  |  | < 100 nM | < 500 nM
7 | CCCC(c1ncc2cc(CN3CCC(c4cccc(O)c4)(N(C)C)CC3)ccc2n1)N1C[C@@H](C)N[C@@H](C)C1 (stereo partly drawn) [Example 28, 3-(4-(Dimethylamino)-1-((2-(1-((3S,5R)-3,5-dimethylpiperazin-1-yl)butyl)quinazolin-6-yl)methyl)piperidin-4-yl)phenol] | < 100 nM | > 5000 nM |  | 
8 | CCC[C@@H](c1cnc2ccc(CN3CCC(c4cccc(O)c4)(N(C)C)CC3)cc2n1)N1C[C@@H](C)N[C@@H](C)C1 [Example 39, 3-(4-(Dimethylamino)-1-((3-((S)-1-((3S,5R)-3,5-dimethylpiperazin-1-yl)butyl)quinoxalin-6-yl)methyl)piperidin-4-yl)phenol] | < 100 nM | 500 to 5000 nM |  | 
9 | CCCC(c1cnc2ccc(CN3CCC(c4cccc(O)c4)(N(C)C)CC3)cc2n1)N1C[C@@H](C)N[C@@H](C)C1 (stereo partly drawn) [Example 37, 3-(4-(Dimethylamino)-1-((3-(1-((3S,5R)-3,5-dimethylpiperazin-1-yl)butyl)quinoxalin-6-yl)methyl)piperidin-4-yl)phenol] |  |  | < 100 nM | < 500 nM
10 | CCCC(c1ccc2cc(CN3CCC(c4cccc(O)c4)(N(C)C)CC3)ccc2n1)N1C[C@@H](C)N[C@@H](C)C1 (stereo partly drawn) [Example 7, 3-(4-(Dimethylamino)-1-((2-(1-((3S,5R)-3,5-dimethylpiperazin-1-yl)butyl)quinolin-6-yl)methyl)piperidin-4-yl)phenol] |  |  | < 100 nM | < 500 nM
11 | CCCC(c1cnc2ccc(CN3CCC(c4cccc(O)c4)(N(C)C)CC3)cc2c1)N1C[C@@H](C)N[C@@H](C)C1 (stereo partly drawn) [Example 15, 3-(4-(Dimethylamino)-1-((3-(1-((3S,5R)-3,5-dimethylpiperazin-1-yl)butyl)quinolin-6-yl)methyl)piperidin-4-yl)phenol] |  |  | < 100 nM | < 500 nM
12 | CCCC(c1cnc2ccc(N3CCC(c4cccc(O)c4)(N(C)C)CC3)cc2n1)N1C[C@@H](C)N[C@@H](C)C1 (stereo partly drawn) [Example 33, 3-(4-(Dimethylamino)-1-(3-(1-((3S,5R)-3,5-dimethylpiperazin-1-yl)butyl)quinoxalin-6-yl)piperidin-4-yl)phenol] |  |  | < 100 nM | < 500 nM
13 | CCCC(c1cc(OC)c2cc(N3CCC(c4ccccc4)(N(C)C)CC3)ccc2n1)N1C[C@@H](C)N[C@@H](C)C1 (stereo partly drawn) [Example 31, 1-(2-(1-((3S,5R)-3,5-Dimethylpiperazin-1-yl)butyl)-4-methoxyquinolin-6-yl)-N,N-dimethyl-4-phenylpiperidin-4-amine] |  |  | 100 to 500 nM | < 500 nM
14 | CCCC(c1ncc2cc(N3CCC(c4cccc(O)c4)(N(C)C)CC3)ccc2n1)N1C[C@@H](C)N[C@@H](C)C1 (stereo partly drawn) [Example 25, 3-(4-(Dimethylamino)-1-(2-(1-((3S,5R)-3,5-dimethylpiperazin-1-yl)butyl)quinazolin-6-yl)piperidin-4-yl)phenol] |  |  | < 100 nM | > 5000 nM
15 | CCC[C@H](c1nc2ccc(CN3CCC(c4cccc(O)c4)(N(C)C)CC3)cc2nc1CC)N1C[C@@H](C)N[C@@H](C)C1 [Example 41, 3-(4-(Dimethylamino)-1-((2-((R)-1-((3S,5R)-3,5-dimethylpiperazin-1-yl)butyl)-3-ethylquinoxalin-6-yl)methyl)piperidin-4-yl)phenol] |  |  | < 100 nM | < 500 nM
16 | CCC[C@H](c1cnc2ccc(CN3CCC(c4cccc(O)c4)(N(C)C)CC3)cc2n1)N1C[C@@H](C)N[C@@H](C)C1 [Example 38, 3-(4-(Dimethylamino)-1-((3-((R)-1-((3S,5R)-3,5-dimethylpiperazin-1-yl)butyl)quinoxalin-6-yl)methyl)piperidin-4-yl)phenol] |  |  | < 100 nM | < 500 nM
17 | CCCC(c1cc2ccc(CN3CCC(c4cccc(O)c4)(N(C)C)CC3)cc2nc1CC)N1C[C@@H](C)N[C@@H](C)C1 (stereo partly drawn) [Example 21, 3-(4-(Dimethylamino)-1-((3-(1-((3S,5R)-3,5-dimethylpiperazin-1-yl)butyl)-2-ethylquinolin-7-yl)methyl)piperidin-4-yl)phenol] |  |  | < 100 nM | < 500 nM
